# In US6217866A, “Monoclonal antibodies specific to human epidermal growth factor receptor and therapeutic methods employing same” (Rhone-Poulenc Rorer International (Holdings), Inc., priority 1995, dated 2001):
# Experiments:
# KB cells = experiment: colony inhibition assay of KB cells; assay type: cell-based, human
# Experimental: KB cells were seeded in petri dishes (50×15 mm^2, NUNC) at a concentration of 2×10^2 cells per dish. […] On the sixth day cultures were fed with fresh medium containing the above ingredients. On the 15th day the cultures were washed with PBS, fixed with 4% v/v formaldehyde in PBS for 15 min. and stained with hematoxylin. Number of formed colonies (25 cells) was then determined.
# [1] = system: EGF receptors exposed on KB cells; experiment: competitive radioimmunoassay with 125I 108 monoclonal antibody on KB cells; assay type: binding, human
# Experimental: The cells were then washed, solubilized in 0.5N NaOH and their radioactivity was determined in a counter (Kontron, Switzerland). Non-specific binding was determined by the addition of 100-fold excess of unlabelled monoclonal antibody.
substance,measurement,setting,value
epidermal growth factor [EGF],size of KB cell colonies,KB cells; EGF,increase in the size of KB cell colonies
same,number of colonies compared to cells incubated in absence of growth factor,"KB cells; EGF 160 nM, 15 days after seeding",150%
same,maximal level of competition with binding of the antibody to the receptor,[1],about 70%
